Source: article PMC8375990, “The flavin monooxygenase Bs3 triggers cell death in plants, impairs growth in yeast and produces H2O2 in vitro” (PLoS ONE, 2021)

Assays:
[1] = target: T1, Bs3 (Capsicum annuum, UniProt A8TVP6); test: UV-vis spectrum of purified protein; format: binding; conditions: FAD added to lysis buffer; co-purified
T1 construct: gene T459_32270; Gateway recombination site and the two N-terminal methionines deleted
T1 sequence (A8TVP6 3-342): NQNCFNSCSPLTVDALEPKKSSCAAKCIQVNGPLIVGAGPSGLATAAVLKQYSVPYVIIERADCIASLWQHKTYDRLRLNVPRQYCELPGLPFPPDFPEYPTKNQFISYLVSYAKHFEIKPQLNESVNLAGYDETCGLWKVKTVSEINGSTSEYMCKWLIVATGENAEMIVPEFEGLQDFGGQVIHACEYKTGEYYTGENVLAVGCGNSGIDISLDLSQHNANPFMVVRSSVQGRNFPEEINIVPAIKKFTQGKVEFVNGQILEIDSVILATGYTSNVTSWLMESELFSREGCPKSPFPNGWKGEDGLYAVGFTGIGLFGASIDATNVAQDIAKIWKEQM

[2] = target: T2, Bs3 (Capsicum annuum, UniProt A8TVP6, S211A); test: UV-vis spectrum of purified protein; format: binding; conditions: FAD added to lysis buffer; co-purified
T2 construct: gene T459_32270; Gateway recombination site and the two N-terminal methionines deleted

[3] = target: T1, Bs3; test: NADPH oxidation, decrease of absorbance at […] nm; format: biochemical

T2 sequence (A8TVP6 entry or part of it S211A): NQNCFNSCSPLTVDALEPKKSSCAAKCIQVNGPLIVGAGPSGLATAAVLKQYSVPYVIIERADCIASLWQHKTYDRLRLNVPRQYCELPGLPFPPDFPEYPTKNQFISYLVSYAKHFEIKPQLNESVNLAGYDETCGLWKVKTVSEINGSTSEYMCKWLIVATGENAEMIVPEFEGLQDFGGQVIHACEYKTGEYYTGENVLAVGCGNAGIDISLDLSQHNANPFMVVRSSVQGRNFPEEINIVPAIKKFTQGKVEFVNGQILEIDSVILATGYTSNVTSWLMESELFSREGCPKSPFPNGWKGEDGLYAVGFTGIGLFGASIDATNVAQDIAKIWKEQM

inhibition at 50 µM [3]	SMILES	UV-vis spectrum of purified protein [1]	UV-vis spectrum of purified protein [2]
	Cc1cc2nc3c(=O)[nH]c(=O)nc-3n(C[C@H](O)[C@H](O)[C@H](O)COP(=O)(O)OP(=O)(O)OC[C@H]3O[C@@H](n4cnc5c(N)ncnc54)[C@H](O)[C@@H]3O)c2cc1C [FAD]	purified Bs3 and Bs3S211A proteins were bright yellow and the UV-vis spectra show characteristic peaks	purified Bs3 and Bs3S211A proteins were bright yellow and the UV-vis spectra show characteristic peaks
95%	Sc1nnc(-c2ccc(Cl)cc2)[nH]1 [yucasin]		
79%	Cn1cc[nH]c1=S [methimazole]		
